pEC50, pIC50: −log10 of the molar value. Several values for one entry are separate records, joined by “and”; a condition that tells them apart may be missing. Identical values can stand only once. Like-named read-outs stand apart in the source and are kept apart here.
Tests used:
[1] = system: IL-4 secretion from human CD4-positive T-cells stimulated with antiCD2/antiCD3/antiCD28-coated beads; assay: T-cell IL-4 assay; format: cell-based
[2] = system: CCD 841 CoN; assay: OncoPanel normal cell proliferation assay (3-day); format: cell-based; conditions: Homo sapiens, 72 h, colon epithelial, 3-day incubation
[3] = system: 4 normal cell types, CCD 841 CoN, HMEC, HREC and Wi38; assay: OncoPanel normal cell proliferation assay (3-day), panel; format: cell-based; conditions: all 4 cell lines
[4] = system: IL-17A secretion from human PBMC stimulated with antiCD3/antiCD28-coated beads; assay: PBMC IL-17 assay (assay number 1321); format: cell-based
[5] = biological target: dopamine D3 (h) (Homo sapiens, UniProt P35462); assay: biochemical; format: binding
Sequence of dopamine D3 (h) (P35462 whole entry): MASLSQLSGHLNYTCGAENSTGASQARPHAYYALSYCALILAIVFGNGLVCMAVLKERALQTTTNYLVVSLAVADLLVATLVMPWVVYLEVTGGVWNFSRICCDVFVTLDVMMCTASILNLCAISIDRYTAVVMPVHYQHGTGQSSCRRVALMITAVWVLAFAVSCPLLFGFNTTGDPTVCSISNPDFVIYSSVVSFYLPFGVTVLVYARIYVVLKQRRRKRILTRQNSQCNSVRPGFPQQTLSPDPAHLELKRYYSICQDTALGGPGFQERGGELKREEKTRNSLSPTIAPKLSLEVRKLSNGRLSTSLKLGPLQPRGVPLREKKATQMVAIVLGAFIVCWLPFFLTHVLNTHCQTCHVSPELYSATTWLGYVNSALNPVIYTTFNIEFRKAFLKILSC

[6] = biological target: melatonin MT1 (ML1A) (h) (Homo sapiens, UniProt P48039); assay: Bioprint radioligand binding assay
Sequence of melatonin MT1 (ML1A) (h) (P48039 whole entry): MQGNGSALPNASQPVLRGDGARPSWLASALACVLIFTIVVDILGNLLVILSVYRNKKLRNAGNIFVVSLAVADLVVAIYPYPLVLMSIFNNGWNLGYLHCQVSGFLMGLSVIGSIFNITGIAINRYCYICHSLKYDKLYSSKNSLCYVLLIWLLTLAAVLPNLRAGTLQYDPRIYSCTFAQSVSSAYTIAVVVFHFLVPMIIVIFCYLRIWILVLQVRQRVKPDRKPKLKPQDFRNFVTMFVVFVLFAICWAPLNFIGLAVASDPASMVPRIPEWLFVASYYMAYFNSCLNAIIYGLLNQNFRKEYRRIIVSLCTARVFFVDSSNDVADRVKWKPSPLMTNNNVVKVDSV

[7] = system: human pancreatic carcinoma MIA PaCa-2; conditions: for % T/C / % TGI / Tumor Volume, Mean: 100 mg/kg QWK x 3 IP
[8] = format: in vivo, female NOD/SCID mice; conditions: for Body Weight: single animals No. 1-3
Procedure: Two studies were conducted by Eurofins Panlabs Taiwan, Ltd. The purpose of Study 1 was to assess the possible adverse effects of Compound 1 alone or in combination with […] in Maximum Tolerated Dose (MTD) assay. The purpose of Study 2 is a follow-up study performed at escalating doses.
Compound 1 was dissolved in 10% Tween 20/90% PBS or 20% Tween 20/80% PBS for IP injections. Compound 1 was administrated alone or in combination with […] at a dosing volume of 10 or 20 mL/kg for each substance.
For mortality, test substance (Compound 1; 100 mg/kg) alone or in combination with […] (8.75, 17.5, or 35 mg/kg; given on the same day) was administered to mice by IP injection to evaluate the possible adverse effects in MTD assay. […]. […]
A follow-up MTD study was performed to evaluate for the adverse effects of the test substance (Compound 1) at escalating doses alone or in combination with […] (17.5 mg/kg) via IP in a group of 3 female NOD/SCID mice at 6-7 weeks of age.
For mortality, treatment with Compound 1 at escalating doses (200 mg/kg) alone and in combination with […] (17.5 mg/kg; given on the same day) were administered by IP injection to a group of 3 female NOD/SCID mice at 6-7 weeks of age. The mortality was monitored at 30 min and again at 3, 24, 48 and 72 hours after compound administrations.
For body weight, test substance (Compound 1) at escalating doses (200 mg/kg) alone or in combination with […] (17.5 mg/kg; given on the same day) were administered by IP injection to a group of 3 female NOD/SCID mice at 6-7 weeks of age. The body weight of each animal was measured and recorded daily for 3 days.
For behavioral, symptomatic i.e. neurological and autonomic signs, test substance (Compound 1; 200 mg/kg) alone or in combination with […] (17.5 mg/kg; given on the same day) were administered by IP injection to a group of 3 female NOD/SCID mice at 6-7 weeks of age. The animals were then observed for presences of acute toxic symptoms and autonomic effects for 30 min after the first dose.

[9] = biological target: SETD2(h) (Homo sapiens, UniProt Q9BYW2); conditions: read-out: Reference: (IC50 not given); cited from earlier work
Sequence of SETD2(h) (Q9BYW2 whole entry): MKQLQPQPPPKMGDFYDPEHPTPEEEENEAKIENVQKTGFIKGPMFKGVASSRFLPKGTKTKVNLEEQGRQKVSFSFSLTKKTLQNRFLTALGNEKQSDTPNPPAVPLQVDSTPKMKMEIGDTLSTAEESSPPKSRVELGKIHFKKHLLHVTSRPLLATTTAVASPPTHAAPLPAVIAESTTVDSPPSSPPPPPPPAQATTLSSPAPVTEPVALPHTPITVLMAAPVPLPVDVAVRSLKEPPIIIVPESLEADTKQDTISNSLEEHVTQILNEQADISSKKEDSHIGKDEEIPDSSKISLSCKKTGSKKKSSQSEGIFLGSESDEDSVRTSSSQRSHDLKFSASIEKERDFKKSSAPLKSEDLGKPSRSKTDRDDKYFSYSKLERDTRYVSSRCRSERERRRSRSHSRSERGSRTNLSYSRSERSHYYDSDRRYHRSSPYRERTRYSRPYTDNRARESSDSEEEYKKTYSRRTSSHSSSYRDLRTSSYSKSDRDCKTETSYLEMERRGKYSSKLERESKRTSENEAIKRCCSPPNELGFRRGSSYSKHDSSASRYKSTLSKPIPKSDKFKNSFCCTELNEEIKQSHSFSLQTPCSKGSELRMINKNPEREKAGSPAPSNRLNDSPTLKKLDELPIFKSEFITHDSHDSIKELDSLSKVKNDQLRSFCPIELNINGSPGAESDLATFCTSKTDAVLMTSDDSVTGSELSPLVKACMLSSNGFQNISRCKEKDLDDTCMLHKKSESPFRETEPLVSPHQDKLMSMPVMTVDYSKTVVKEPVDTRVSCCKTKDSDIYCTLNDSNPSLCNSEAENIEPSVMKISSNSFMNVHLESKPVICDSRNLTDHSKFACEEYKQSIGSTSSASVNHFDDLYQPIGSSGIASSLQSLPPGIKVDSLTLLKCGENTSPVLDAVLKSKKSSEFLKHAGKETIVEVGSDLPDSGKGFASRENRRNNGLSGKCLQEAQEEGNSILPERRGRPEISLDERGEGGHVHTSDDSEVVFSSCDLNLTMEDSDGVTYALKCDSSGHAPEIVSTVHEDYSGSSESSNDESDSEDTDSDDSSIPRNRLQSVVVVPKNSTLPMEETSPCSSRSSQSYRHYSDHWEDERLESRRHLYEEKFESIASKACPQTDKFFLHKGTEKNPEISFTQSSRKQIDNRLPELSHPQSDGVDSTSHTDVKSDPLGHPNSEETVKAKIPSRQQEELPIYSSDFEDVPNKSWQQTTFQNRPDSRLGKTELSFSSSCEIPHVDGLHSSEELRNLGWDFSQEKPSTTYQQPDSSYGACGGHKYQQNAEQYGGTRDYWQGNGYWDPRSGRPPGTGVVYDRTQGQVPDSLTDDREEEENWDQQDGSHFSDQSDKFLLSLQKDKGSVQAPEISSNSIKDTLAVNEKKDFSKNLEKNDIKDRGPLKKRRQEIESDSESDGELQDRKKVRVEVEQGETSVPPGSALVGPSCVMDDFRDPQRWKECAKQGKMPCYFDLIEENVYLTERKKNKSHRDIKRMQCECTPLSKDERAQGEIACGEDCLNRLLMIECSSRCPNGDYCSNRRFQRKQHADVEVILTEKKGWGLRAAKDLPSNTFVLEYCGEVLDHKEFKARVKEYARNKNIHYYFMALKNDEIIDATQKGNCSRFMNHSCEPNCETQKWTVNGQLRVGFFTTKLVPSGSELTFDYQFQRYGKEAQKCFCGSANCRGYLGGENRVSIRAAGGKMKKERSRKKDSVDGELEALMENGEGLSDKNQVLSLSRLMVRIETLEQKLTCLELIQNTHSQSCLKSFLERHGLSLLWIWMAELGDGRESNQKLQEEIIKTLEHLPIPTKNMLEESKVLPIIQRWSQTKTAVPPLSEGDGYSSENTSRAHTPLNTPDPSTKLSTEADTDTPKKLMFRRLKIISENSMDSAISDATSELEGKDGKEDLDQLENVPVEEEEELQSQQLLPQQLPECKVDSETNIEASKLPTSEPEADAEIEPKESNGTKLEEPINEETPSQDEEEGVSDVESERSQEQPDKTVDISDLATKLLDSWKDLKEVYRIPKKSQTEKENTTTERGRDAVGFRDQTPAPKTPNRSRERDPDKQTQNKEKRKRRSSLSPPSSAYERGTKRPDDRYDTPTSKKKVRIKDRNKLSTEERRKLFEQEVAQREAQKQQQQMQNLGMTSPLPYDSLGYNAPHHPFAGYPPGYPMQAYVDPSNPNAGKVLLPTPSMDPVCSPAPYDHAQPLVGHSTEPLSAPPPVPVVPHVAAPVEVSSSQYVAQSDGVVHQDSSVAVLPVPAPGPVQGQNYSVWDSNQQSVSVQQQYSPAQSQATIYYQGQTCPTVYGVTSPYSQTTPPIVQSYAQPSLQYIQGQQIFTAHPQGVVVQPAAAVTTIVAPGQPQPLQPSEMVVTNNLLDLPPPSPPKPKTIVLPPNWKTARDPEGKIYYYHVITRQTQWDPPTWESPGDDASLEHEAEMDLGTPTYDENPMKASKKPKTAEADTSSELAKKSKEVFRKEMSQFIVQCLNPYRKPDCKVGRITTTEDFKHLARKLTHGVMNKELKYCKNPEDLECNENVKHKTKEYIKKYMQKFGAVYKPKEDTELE

[10] = biological target: DNMT3b (Homo sapiens, UniProt Q9UBC3); conditions: read-out: Reference IC50; cited from earlier work
[11] = biological target: NSD1 (h) (Homo sapiens, UniProt Q96L73); conditions: read-out: Reference: (IC50 not given); cited from earlier work
[12] = system: MLL2(h) complex; conditions: read-out: Reference: (IC50 not given); cited from earlier work
[13] = system: MLL4(h) complex; conditions: read-out: Reference: (IC50 not given); cited from earlier work
[14] = 200 mg/kg IP, individual mice No. 1-3, 30 min after first dose, Study 2 Round 1
Throughout, for Autonomic signs: Death: key: −: no effects; ±: Slight to moderate effects; +: Severe effects; ↓: Low; D: Deep.
Throughout, for Autonomic signs: Dec. Palpebral Size: key: −: no effects; ±: Slight to moderate effects; +: Severe effects; ↓: Low; D: Deep.
Throughout, for Autonomic signs: Diarrhea: key: −: no effects; ±: Slight to moderate effects; +: Severe effects; ↓: Low; D: Deep.
Throughout, for Autonomic signs: Inc. Palpebral Size: key: −: no effects; ±: Slight to moderate effects; +: Severe effects; ↓: Low; D: Deep.

Compound: CC(C)=CCC[C@H](CO)[C@@H]1CC[C@@H](C)c2c1cc(C)c(O)c2O [Compound 1, 7,8,18-trihydroxyserrulat-14-ene]
- Emax ([1]; read-out: Inhibition of IL-4 release, Max Effect): 100%
- pEC50 ([1]; read-out: Inhibition of IL-4 release, Rel EC50): 6.28
- pEC50 ([2]; read-out: Cell Count EC50): 5.31
- GI50 ([2]; read-out: Cell Count GI50): 5.27 µM
- pIC50 ([2]; read-out: Cell Count IC50): 4.84
- toxicity towards normal cells [3]: relatively low toxicity
- Emax ([4]; read-out: Inhibition of IL-17A release, Max Effect): 100%
- pEC50 ([4]; read-out: Inhibition of IL-17A release, Rel EC50): 6.49
- inhibition at 10 µM ([5]; DOPAMINE D3 (h) (antagonist radioligand), read-out: % Inhibition of Control Specific Binding): 85%
- inhibition at 10 µM ([5]; read-out: % inhibition of control specific binding): 85%
- inhibition at 10 µM ([6]; 10 μM, read-out: % inhibition of control specific binding): 91%
- inhibition at 10 µM ([6]; read-out: % Inhibition of Control Specific Binding): 91%
- % T/C ([7]; Day 1): 100%
- % TGI ([7]; Day 1): 0%
- Tumor Volume, Mean ([7]; Day 1): 90 mm3
- % T/C ([7]; Day 4): 96%
- % TGI ([7]; Day 4): 4%
- Tumor Volume, Mean ([7]; Day 4): 90 mm3
- % T/C ([7]; Day 8): 101%
- % TGI ([7]; Day 8): −1%
- Tumor Volume, Mean ([7]; Day 8): 133 mm3
- % T/C ([7]; Day 11): 107%
- % TGI ([7]; Day 11): −7%
- Tumor Volume, Mean ([7]; Day 11): 211 mm3
- % T/C ([7]; Day 15): 92%
- % TGI ([7]; Day 15): 8%
- Tumor Volume, Mean ([7]; Day 15): 345 mm3
- anti-cancer activity ([7]; in combination with gemcitabine): effective in combination with gemcitabine
- Autonomic signs: Body Temperature [8, 14]: ↓+
- Autonomic signs: Death [8, 14]: −
- Autonomic signs: Dec. Palpebral Size [8, 14]: −
- Autonomic signs: Diarrhea [8, 14]: −
- Autonomic signs: Inc. Palpebral Size [8, 14]: −
- Autonomic signs: Lacrimation [8, 14]: −
- Autonomic signs: Others [8, 14]: −
- Autonomic signs: Piloerection [8, 14]: −
- Autonomic signs: Salivation F.V. [8, 14]: −
- Autonomic signs: Skin Color [8, 14]: −
- adverse effects ([8]; Study 1, Compound 1 100 mg/kg IP alone): did not elicit significant adverse effects
- survival ([8]; Study 1, Compound 1 100 mg/kg IP alone, 72-hour observation period): All test animals survived
- Response (death/test) ([8]; Study 1, IP, 100 mg/kg, 30 min): 0/3
- Response (death/test) ([8]; Study 1, IP, 100 mg/kg, 3 hrs): 0/3
- Response (death/test) ([8]; Study 1, IP, 100 mg/kg, Day 1): 0/3
- Response (death/test) ([8]; Study 1, IP, 100 mg/kg, Day 2): 0/3
- Response (death/test) ([8]; Study 1, IP, 100 mg/kg, Day 3): 0/3
- autonomic sign ([8]; Study 2, 200 mg/kg IP, 30 min after dose): Hypothermia
- Response (death/test) ([8]; Study 2, IP, 200 mg/kg, 30 min): 0/3
- Response (death/test) ([8]; Study 2, IP, 200 mg/kg, 3 hrs): 0/3
- Body Weight ([8]; Study 2, IP, 200 mg/kg, Day 0, 200 mg/kg): 22 g and 21 g (2×)
- Response (death/test) ([8]; Study 2, IP, 200 mg/kg, Day 1): 1/3
- Body Weight ([8]; Study 2, IP, 200 mg/kg, Day 1): 21 g
- Response (death/test) ([8]; Study 2, IP, 200 mg/kg, Day 2): 3/3
- Response (death/test) ([8]; Study 2, IP, 200 mg/kg, Day 3): 3/3
- B.W. ([8]; Study 2 Round 1, signs table, IP, 200 mg/kg, animals No. 1-3): 22 g and 21 g

Compound: Nc1ncnc2c1ncn2[C@@H]1O[C@H](CSCC[C@H](N)C(=O)O)[C@@H](O)[C@H]1O [SAH]
- pIC50 [9]: 5.92
- pIC50 [10]: 7.03
- pIC50 [11]: 6.01
- pIC50 [12]: 6.01
- pIC50 [13]: 6.01
